Laboratory results reported in US5534508A, “Cephem compounds and antimicrobial agents” (Katayama Seiyakusyo Co., Ltd., priority 1993, dated 1996).
Converted amounts (≈) assume the structure as drawn.

Assays:
Assay type in all cases: cell-based
E. coli CSH2(RK1) = assay: MIC against standard strains (Table 1), E. coli CSH2(RK1); conditions: Escherichia coli, read-out: MIC (minimum growth inhibitory concentration)
Method: (§1) The minimum growth inhibitory concentration (MIC, μg/ml) of the compounds for each of the 25 standard laboratory strains (standard strains) shown in Table 1 was determined in accordance with the standard method of the Japan Chemotherapical Society (Chemotherapy, 29, 76-79 (1981) under "Re-revision of the measuring methods of minimum growth inhibitory concentration (MIC)").
(§2) That is, by using each test strain cultured overnight at 37° C. in a Muller-Hinton broth, there was prepared a bacterial solution with a cell density of 1×10^6 CFU/ml in the same broth. The bacterial solution was inoculated into the Muller-Hinton agar media each containing respectively one test agent (i.e., compound) and, after overnight incubation at 37° C., the minimum concentration that inhibited growth of the bacteria was determined and expressed as MIC.
(§3) Staphylococcus aureus 167 and Staphylococcus aureus 195 used in the test were MRSA. CTM (cefotiam) and FMOX (flomoxef) were used as the control agents.

B. subtilis ATCC 6633 = assay: MIC against standard strains (Table 1), B. subtilis ATCC 6633; conditions: Bacillus subtilis, ATCC6633, Muller-Hinton agar, overnight 37° C., read-out: MIC (minimum growth inhibitory concentration)
Method: as §1, §2, §3

C. freundii ATCC 8090 = assay: MIC against standard strains (Table 1), C. freundii ATCC 8090; conditions: Citrobacter freundii, ATCC8090, Muller-Hinton agar, overnight 37° C., read-out: MIC (minimum growth inhibitory concentration)
Method: as §1, §2, §3

S. aureus 195 = assay: MIC against standard strains (Table 1), S. aureus 195 (MRSA); conditions: Staphylococcus aureus, Muller-Hinton agar, overnight 37° C., read-out: MIC (minimum growth inhibitory concentration)
Method: as §1, §2, §3

S. aureus Smith = assay: MIC against standard strains (Table 1), S. aureus Smith; conditions: Staphylococcus aureus, Muller-Hinton agar, overnight 37° C., read-out: MIC (minimum growth inhibitory concentration)
Method: as §1, §2, §3

P. aeruginosa AKR17 = assay: MIC against standard strains (Table 1), P. aeruginosa AKR17; conditions: Pseudomonas aeruginosa, Muller-Hinton agar, overnight 37° C., read-out: MIC (minimum growth inhibitory concentration)
Method: as §1, §2, §3

E. cloacae Nek39 = assay: MIC against standard strains (Table 1), E. cloacae Nek39; conditions: Enterobacter cloacae, Muller-Hinton agar, overnight 37° C., read-out: MIC (minimum growth inhibitory concentration)
Method: as §1, §2, §3

P. vulugaris OX-19 = assay: MIC against standard strains (Table 1), P. vulugaris OX-19; conditions: Muller-Hinton agar, overnight 37° C., read-out: MIC (minimum growth inhibitory concentration)
Method: as §1, §2, §3

M. morganii IFO 3848 = assay: MIC against standard strains (Table 1), M. morganii IFO 3848; conditions: Morganella morganii, IFO3848, Muller-Hinton agar, overnight 37° C., read-out: MIC (minimum growth inhibitory concentration)
Method: as §1, §2, §3

A. faecalis ATCC 3750 = assay: MIC against standard strains (Table 1), A. faecalis ATCC 3750; conditions: Alcaligenes faecalis, ATCC3750, Muller-Hinton agar, overnight 37° C., read-out: MIC (minimum growth inhibitory concentration)
Method: as §1, §2, §3

K. pneuminiae No. 42 = assay: MIC against standard strains (Table 1), K. pneuminiae No. 42; conditions: Muller-Hinton agar, overnight 37° C., read-out: MIC (minimum growth inhibitory concentration)
Method: as §1, §2, §3

P. aeruginosa NCTC 10490 = assay: MIC against standard strains (Table 1), P. aeruginosa NCTC 10490; conditions: Pseudomonas aeruginosa, NCTC10490, Muller-Hinton agar, overnight 37° C., read-out: MIC (minimum growth inhibitory concentration)
Method: as §1, §2, §3

S. marcescens No. 16-2 = assay: MIC against standard strains (Table 1), S. marcescens No. 16-2; conditions: Serratia marcescens, NO.162, Muller-Hinton agar, overnight 37° C., read-out: MIC (minimum growth inhibitory concentration)
Method: as §1, §2, §3

E. cloacae ATCC 13407 = assay: MIC against standard strains (Table 1), E. cloacae ATCC 13407; conditions: Enterobacter cloacae, ATCC13407, Muller-Hinton agar, overnight 37° C., read-out: MIC (minimum growth inhibitory concentration)
Method: as §1, §2, §3

K. pneuminiae IFO 3317 = assay: MIC against standard strains (Table 1), K. pneuminiae IFO 3317; conditions: Muller-Hinton agar, overnight 37° C., read-out: MIC (minimum growth inhibitory concentration)
Method: as §1, §2, §3

A. calcoaceticos T59 = assay: MIC against standard strains (Table 1), A. calcoaceticos T59; conditions: Muller-Hinton agar, overnight 37° C., read-out: MIC (minimum growth inhibitory concentration)
Method: as §1, §2, §3

S. aureus 167 = assay: MIC against standard strains (Table 1), S. aureus 167 (MRSA); conditions: Staphylococcus aureus, Muller-Hinton agar, overnight 37° C., read-out: MIC (minimum growth inhibitory concentration)
Method: as §1, §2, §3

P. cepacia CN 9113 = assay: MIC against standard strains (Table 1), P. cepacia CN 9113; conditions: Burkholderia cepacia, CN9113, Muller-Hinton agar, overnight 37° C., read-out: MIC (minimum growth inhibitory concentration)
Method: as §1, §2, §3

E. coli CSH2(RE45) = assay: MIC against standard strains (Table 1), E. coli CSH2(RE45); conditions: Escherichia coli, read-out: MIC (minimum growth inhibitory concentration)
Method: as §1, §2, §3

M. luteus ATCC 9341 = assay: MIC against standard strains (Table 1), M. luteus ATCC 9341; conditions: Micrococcus luteus, ATCC9341, Muller-Hinton agar, overnight 37° C., read-out: MIC (minimum growth inhibitory concentration)
Method: as §1, §2, §3

S. epidemidis IAM 1296 = assay: MIC against standard strains (Table 1), S. epidemidis IAM 1296; conditions: Muller-Hinton agar, overnight 37° C., read-out: MIC (minimum growth inhibitory concentration)
Method: as §1, §2, §3

E. coli JC-2 = assay: MIC against standard strains (Table 1), E. coli JC-2; conditions: Escherichia coli, JC2, Muller-Hinton agar, overnight 37° C., read-out: MIC (minimum growth inhibitory concentration)
Method: as §1, §2, §3

S. aureus 209p JC-1 = assay: MIC against standard strains (Table 1), S. aureus 209p JC-1; conditions: Staphylococcus aureus, Muller-Hinton agar, overnight 37° C., read-out: MIC (minimum growth inhibitory concentration)
Method: as §1, §2, §3

P. mirabilis IFO 3849 = assay: MIC against standard strains (Table 1), P. mirabilis IFO 3849; conditions: Proteus mirabilis, IFO3849, Muller-Hinton agar, overnight 37° C., read-out: MIC (minimum growth inhibitory concentration)
Method: as §1, §2, §3

S. marcescens IAM 1184 = assay: MIC against standard strains (Table 1), S. marcescens IAM 1184; conditions: Serratia marcescens, IAM1184, Muller-Hinton agar, overnight 37° C., read-out: MIC (minimum growth inhibitory concentration)
Method: as §1, §2, §3

clinically isolated MRSA = assay: Antibacterial potency against clinically isolated MRSA (47 strains); conditions: Staphylococcus aureus
Method: A test on the antibacterial potency against clinically isolated MRSA was conducted in the following way.
That is, using 47 strains of clinically isolated MRSA, MIC was determined for each of the test strains in accordance with the standard method of the Japan Chemotherapical Society as in Test Example 1, and the minimum growth inhibitory concentration which inhibited growth of 50% of the strains tested was expressed as MIC50 (μg/ml), and the minimum growth inhibitory concentration which inhibited growth of 90% of the strains tested was expressed as MIC90 (μg/ml).
In this test, FMOX was used as the control agent.

CN(C)CCn1nnnc1SCC1=C(C(=O)O)N2C(=O)[C@@H](NC(=O)Cc3csc(N)n3)[C@H]2SC1 [CTM, cefotiam, reference compound]
MIC (E. coli CSH2(RK1)): 0.2 µg/mL (≈ 0.38 µM)
MIC (B. subtilis ATCC 6633): 0.39 µg/mL (≈ 0.742 µM)
MIC (C. freundii ATCC 8090): 0.78 µg/mL (≈ 1.48 µM)
MIC (S. aureus 195): > 100 µg/mL
MIC (S. aureus Smith): 0.78 µg/mL (≈ 1.48 µM)
MIC (P. aeruginosa AKR17): > 100 µg/mL
MIC (E. cloacae Nek39): > 100 µg/mL
MIC (P. vulugaris OX-19): 0.39 µg/mL (≈ 0.742 µM)
MIC (M. morganii IFO 3848): 0.2 µg/mL (≈ 0.38 µM)
MIC (A. faecalis ATCC 3750): 3.13 µg/mL (≈ 5.95 µM)
MIC (K. pneuminiae No. 42): 0.39 µg/mL (≈ 0.742 µM)
MIC (P. aeruginosa NCTC 10490): 100 µg/mL (≈ 190 µM)
MIC (S. marcescens No. 16-2): > 100 µg/mL
MIC (E. cloacae ATCC 13407): > 100 µg/mL
MIC (K. pneuminiae IFO 3317): 0.2 µg/mL (≈ 0.38 µM)
MIC (A. calcoaceticos T59): > 100 µg/mL
MIC (S. aureus 167): > 100 µg/mL
MIC (P. cepacia CN 9113): > 100 µg/mL
MIC (E. coli CSH2(RE45)): 0.39 µg/mL (≈ 0.742 µM)
MIC (M. luteus ATCC 9341): 0.39 µg/mL (≈ 0.742 µM)
MIC (S. epidemidis IAM 1296): 0.39 µg/mL (≈ 0.742 µM)
MIC (E. coli JC-2): 0.2 µg/mL (≈ 0.38 µM)
MIC (S. aureus 209p JC-1): 0.78 µg/mL (≈ 1.48 µM)
MIC (P. mirabilis IFO 3849): 0.39 µg/mL (≈ 0.742 µM)
MIC (S. marcescens IAM 1184): 3.13 µg/mL (≈ 5.95 µM)

CO/N=C(\C(=O)N[C@@H]1C(=O)N2C(C(=O)[O-])=C(/C=C/C[n+]3cccc(-c4csc(N)n4)c3)CS[C@H]12)c1csc(N)n1 [Compound 5, 7β-[2-(2-aminothiazol-4-yl)-2-syn-methoxyiminoacetamido]-3-[(E)-3-[3-(2-aminothiazol-4-yl)pyridinio]-1-propenyl]-3-cephem-4-carboxylate]
MIC (E. coli CSH2(RK1)): 0.05 µg/mL (≈ 0.0835 µM)
MIC (B. subtilis ATCC 6633): 0.39 µg/mL (≈ 0.651 µM)
MIC (C. freundii ATCC 8090): 0.025 µg/mL (≈ 0.0418 µM)
MIC (S. aureus 195): 12.5 µg/mL (≈ 20.9 µM)
MIC (S. aureus Smith): 0.39 µg/mL (≈ 0.651 µM)
MIC (P. aeruginosa AKR17): > 100 µg/mL
MIC (E. cloacae Nek39): 3.13 µg/mL (≈ 5.23 µM)
MIC (P. vulugaris OX-19): 0.025 µg/mL (≈ 0.0418 µM)
MIC (M. morganii IFO 3848): 0.025 µg/mL (≈ 0.0418 µM)
MIC (A. faecalis ATCC 3750): 0.78 µg/mL (≈ 1.3 µM)
MIC (K. pneuminiae No. 42): 0.2 µg/mL (≈ 0.334 µM)
MIC (P. aeruginosa NCTC 10490): 1.56 µg/mL (≈ 2.61 µM)
MIC (S. marcescens No. 16-2): 1.56 µg/mL (≈ 2.61 µM)
MIC (E. cloacae ATCC 13407): 0.2 µg/mL (≈ 0.334 µM)
MIC (K. pneuminiae IFO 3317): 0.025 µg/mL (≈ 0.0418 µM)
MIC (A. calcoaceticos T59): 12.5 µg/mL (≈ 20.9 µM)
MIC (S. aureus 167): 100 µg/mL (≈ 167 µM)
MIC (P. cepacia CN 9113): 50 µg/mL (≈ 83.5 µM)
MIC (E. coli CSH2(RE45)): 0.2 µg/mL (≈ 0.334 µM)
MIC (M. luteus ATCC 9341): 0.025 µg/mL (≈ 0.0418 µM)
MIC (S. epidemidis IAM 1296): 0.2 µg/mL (≈ 0.334 µM)
MIC (E. coli JC-2): 0.025 µg/mL (≈ 0.0418 µM)
MIC (S. aureus 209p JC-1): 0.39 µg/mL (≈ 0.651 µM)
MIC (P. mirabilis IFO 3849): 0.1 µg/mL (≈ 0.167 µM)
MIC (S. marcescens IAM 1184): 0.025 µg/mL (≈ 0.0418 µM)

CO[C@@]1(NC(=O)CSC(F)F)C(=O)N2C(C(=O)O)=C(CSc3nnnn3CCO)CO[C@@H]21 [FMOX, flomoxef, reference compound]
MIC (E. coli CSH2(RK1)): 0.1 µg/mL (≈ 0.201 µM)
MIC50 (clinically isolated MRSA; concentration inhibiting growth of 50% of 47 clinically isolated MRSA strains): 5.13 µg/mL (≈ 10.3 µM)
MIC90 (clinically isolated MRSA; concentration inhibiting growth of 90% of 47 clinically isolated MRSA strains): 32.1 µg/mL (≈ 64.6 µM)
MIC (B. subtilis ATCC 6633): 0.2 µg/mL (≈ 0.403 µM)
MIC (C. freundii ATCC 8090): 0.2 µg/mL (≈ 0.403 µM)
MIC (S. aureus 195): 3.13 µg/mL (≈ 6.3 µM)
MIC (S. aureus Smith): 0.39 µg/mL (≈ 0.786 µM)
MIC (P. aeruginosa AKR17): > 100 µg/mL
MIC (E. cloacae Nek39): 100 µg/mL (≈ 201 µM)
MIC (P. vulugaris OX-19): 0.39 µg/mL (≈ 0.786 µM)
MIC (M. morganii IFO 3848): 0.39 µg/mL (≈ 0.786 µM)
MIC (A. faecalis ATCC 3750): 0.1 µg/mL (≈ 0.201 µM)
MIC (K. pneuminiae No. 42): 0.1 µg/mL (≈ 0.201 µM)
MIC (P. aeruginosa NCTC 10490): > 100 µg/mL
MIC (S. marcescens No. 16-2): 100 µg/mL (≈ 201 µM)
MIC (E. cloacae ATCC 13407): 100 µg/mL (≈ 201 µM)
MIC (K. pneuminiae IFO 3317): 0.05 µg/mL (≈ 0.101 µM)
MIC (A. calcoaceticos T59): 100 µg/mL (≈ 201 µM)
MIC (P. cepacia CN 9113): 100 µg/mL (≈ 201 µM)
MIC (E. coli CSH2(RE45)): 0.1 µg/mL (≈ 0.201 µM)
MIC (M. luteus ATCC 9341): 0.1 µg/mL (≈ 0.201 µM)
MIC (S. epidemidis IAM 1296): 0.2 µg/mL (≈ 0.403 µM)
MIC (E. coli JC-2): 0.1 µg/mL (≈ 0.201 µM)
MIC (S. aureus 209p JC-1): 0.39 µg/mL (≈ 0.786 µM)
MIC (P. mirabilis IFO 3849): 0.2 µg/mL (≈ 0.403 µM)
MIC (S. marcescens IAM 1184): 0.2 µg/mL (≈ 0.403 µM)
